Assay results: article PMC5986654, “Combined HAT/EZH2 modulation leads to cancer-selective cell death” (Oncotarget, 2018)

How the values were obtained:
CBP = CBP (Homo sapiens, UniProt Q92793); assay: HAT in vitro assay, 10-dose IC50, CBP; format: biochemical; settings: substrate Histone H3, 3 μM Acetyl-CoA; read-out: Compound IC50 CBP
Experimental: (§1) For HAT in vitro assay, MC2884 activity was also tested in vitro and IC50 was calculated as indicated in the scheme. […] Reactions were carried out at 3 μM Acetyl-CoA. Empty cells indicate no inhibition or compound activity that could not be fit to an IC50 curve.

KAT5 = KAT5 (Homo sapiens, UniProt Q92993); assay: HAT in vitro assay, 10-dose IC50, KAT5; format: biochemical; settings: substrate Histone H2A, 3 μM Acetyl-CoA; read-out: Compound IC50 KAT5
Sequence of KAT5 (Q92993 whole entry): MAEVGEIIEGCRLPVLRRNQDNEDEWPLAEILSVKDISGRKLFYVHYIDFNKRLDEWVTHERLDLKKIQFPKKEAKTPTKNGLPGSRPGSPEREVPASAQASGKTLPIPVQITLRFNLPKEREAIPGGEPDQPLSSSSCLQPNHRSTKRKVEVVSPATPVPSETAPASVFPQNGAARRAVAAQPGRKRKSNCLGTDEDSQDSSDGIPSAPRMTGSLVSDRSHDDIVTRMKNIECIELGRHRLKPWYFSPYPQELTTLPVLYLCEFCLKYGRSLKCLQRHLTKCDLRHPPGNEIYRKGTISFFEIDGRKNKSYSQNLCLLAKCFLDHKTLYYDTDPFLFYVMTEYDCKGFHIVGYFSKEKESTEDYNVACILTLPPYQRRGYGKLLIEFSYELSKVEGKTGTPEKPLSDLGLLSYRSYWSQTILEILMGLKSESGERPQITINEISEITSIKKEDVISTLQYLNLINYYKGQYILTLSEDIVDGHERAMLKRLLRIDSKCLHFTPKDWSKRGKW
Experimental: as §1

[1] = system: neuroblastoma SHSY5Y cells; assay: Cell death induction in SHSY5Y cells; format: cell-based; settings: 3 μM, 48 h
Experimental: When tested in neuroblastoma SHSY5Y cells at tetrahydro-4H -pyran-4-one MC2912 failed in inducing
3 μM for 48 h, MC2884 and its analogues furnished cell death in SHSY5Y cells, whereas its thio-analogue
(Supplementary SAR Table 1). In general, the SHSY5Y similarly to what observed in NB4 cells.
than NB4 cells. Anyway, also in this cell line the death in both cell lines such as MC2910, 2912, 2909,
(MC2909), and bis 3,5-dibromophenyl (MC2910) were acetylation and EZH2 deregulation (SAR Figure 2). In […]
3-phenyl-1-propan-1-one chain at N1 (MC3187), which 3).

[2] = Body weight of leukemia-xenografted mice; format: in vivo; settings: 1 mg/kg i.p. three times weekly, 16 days post-xenograft; control mice 94%
Experimental: (§2) Xenograft studies using NB4 and U937-AML cells were performed in NOG SCID mice under specific pathogen–free conditions. Cells (0.2 × 10^6 in 100 µL) were injected intravenously (retro orbital vein). Injected mice were randomly assigned to receive intra-peritoneal MC2884 (1 mg/kg) or vehicle for two weeks (8 doses) (10 mice per group). All animal procedures were performed in accordance with protocols approved by the local Committee for Animal Experimentation and with the permission of the Italian Health Ministry (n° 626/2015). At 16 days after injection, mice were sacrificed and the femurs and spleens were collected. Bone marrow (BM) and spleen cells were analyzed by FACS. To avoid non-specific stain, cells were mixed with mouse IgG and incubated with indicated antibodies for 30’. The mixture was depleted of erythrocytes and fixed (BD Pharmingen). […] Tumor growth was monitored by weekly bioluminescence imaging (BLI) acquisitions using an IVIS 3D Imaging System (Caliper Alameda, USA). To quantify bioluminescence, the integrated fluxes of photons (photons per s) within each area of interest were determined using the Living Images Software Package 3.2 (Caliper, Alameda, USA). […] Efficacy of drug treatment was assessed as inhibition of BLI emission comparing those MC2884 treated mice group and vehicle groups.

NB4 cells = assay: NB4 leukemia xenograft, human CD45+ cells in bone marrow; format: in vivo, mice; settings: 1 mg/kg i.p., day 16
Experimental: as §2

[3] = Mouse terminal IV PK study; format: in vivo; settings: iv 2 mg/kg, male CD1 mice, plasma
Experimental: pHarmaCology male CD1 mice in a 5 mL/kg injection volume. Terminal blood samples (> 230 μL) were taken under CO2 from pharmacokinetic analysis (mice–iV, ip pK study) groups of 3 mice at each of 8 time-points post dose (0.083, 0.25, 0.5, 1, 2, 4, 8 and 24 h) and placed into heparinized
Compound was administered both intravenously and tubes. Samples were placed on ice for no longer than 30 intraperitoneally to mice. Blood samples were collected at min before centrifugation (10,000 rpm × 3 min). Plasma 8 time points over 24 hr and plasma analysed by LC-MS/ samples (>100 μL) were collected into fresh tubes and MS to determine the concentration of compound. frozen on dry ice. Number of plasma samples = 24.
The plasma time concentration profile was Consistent IV profiles were obtained, with little calculated with the main PK parameters (Co, AUClast, variability across the time-points (the average profile is t.,VD, and CL). shown in the second spreadsheet). An average half-life of […]
For ip dosing. After formulation assessment, […]
For iv dosing. Compound was dissolved at 0.4 mg/mL. […]

Sequence of CBP (Q92793 whole entry): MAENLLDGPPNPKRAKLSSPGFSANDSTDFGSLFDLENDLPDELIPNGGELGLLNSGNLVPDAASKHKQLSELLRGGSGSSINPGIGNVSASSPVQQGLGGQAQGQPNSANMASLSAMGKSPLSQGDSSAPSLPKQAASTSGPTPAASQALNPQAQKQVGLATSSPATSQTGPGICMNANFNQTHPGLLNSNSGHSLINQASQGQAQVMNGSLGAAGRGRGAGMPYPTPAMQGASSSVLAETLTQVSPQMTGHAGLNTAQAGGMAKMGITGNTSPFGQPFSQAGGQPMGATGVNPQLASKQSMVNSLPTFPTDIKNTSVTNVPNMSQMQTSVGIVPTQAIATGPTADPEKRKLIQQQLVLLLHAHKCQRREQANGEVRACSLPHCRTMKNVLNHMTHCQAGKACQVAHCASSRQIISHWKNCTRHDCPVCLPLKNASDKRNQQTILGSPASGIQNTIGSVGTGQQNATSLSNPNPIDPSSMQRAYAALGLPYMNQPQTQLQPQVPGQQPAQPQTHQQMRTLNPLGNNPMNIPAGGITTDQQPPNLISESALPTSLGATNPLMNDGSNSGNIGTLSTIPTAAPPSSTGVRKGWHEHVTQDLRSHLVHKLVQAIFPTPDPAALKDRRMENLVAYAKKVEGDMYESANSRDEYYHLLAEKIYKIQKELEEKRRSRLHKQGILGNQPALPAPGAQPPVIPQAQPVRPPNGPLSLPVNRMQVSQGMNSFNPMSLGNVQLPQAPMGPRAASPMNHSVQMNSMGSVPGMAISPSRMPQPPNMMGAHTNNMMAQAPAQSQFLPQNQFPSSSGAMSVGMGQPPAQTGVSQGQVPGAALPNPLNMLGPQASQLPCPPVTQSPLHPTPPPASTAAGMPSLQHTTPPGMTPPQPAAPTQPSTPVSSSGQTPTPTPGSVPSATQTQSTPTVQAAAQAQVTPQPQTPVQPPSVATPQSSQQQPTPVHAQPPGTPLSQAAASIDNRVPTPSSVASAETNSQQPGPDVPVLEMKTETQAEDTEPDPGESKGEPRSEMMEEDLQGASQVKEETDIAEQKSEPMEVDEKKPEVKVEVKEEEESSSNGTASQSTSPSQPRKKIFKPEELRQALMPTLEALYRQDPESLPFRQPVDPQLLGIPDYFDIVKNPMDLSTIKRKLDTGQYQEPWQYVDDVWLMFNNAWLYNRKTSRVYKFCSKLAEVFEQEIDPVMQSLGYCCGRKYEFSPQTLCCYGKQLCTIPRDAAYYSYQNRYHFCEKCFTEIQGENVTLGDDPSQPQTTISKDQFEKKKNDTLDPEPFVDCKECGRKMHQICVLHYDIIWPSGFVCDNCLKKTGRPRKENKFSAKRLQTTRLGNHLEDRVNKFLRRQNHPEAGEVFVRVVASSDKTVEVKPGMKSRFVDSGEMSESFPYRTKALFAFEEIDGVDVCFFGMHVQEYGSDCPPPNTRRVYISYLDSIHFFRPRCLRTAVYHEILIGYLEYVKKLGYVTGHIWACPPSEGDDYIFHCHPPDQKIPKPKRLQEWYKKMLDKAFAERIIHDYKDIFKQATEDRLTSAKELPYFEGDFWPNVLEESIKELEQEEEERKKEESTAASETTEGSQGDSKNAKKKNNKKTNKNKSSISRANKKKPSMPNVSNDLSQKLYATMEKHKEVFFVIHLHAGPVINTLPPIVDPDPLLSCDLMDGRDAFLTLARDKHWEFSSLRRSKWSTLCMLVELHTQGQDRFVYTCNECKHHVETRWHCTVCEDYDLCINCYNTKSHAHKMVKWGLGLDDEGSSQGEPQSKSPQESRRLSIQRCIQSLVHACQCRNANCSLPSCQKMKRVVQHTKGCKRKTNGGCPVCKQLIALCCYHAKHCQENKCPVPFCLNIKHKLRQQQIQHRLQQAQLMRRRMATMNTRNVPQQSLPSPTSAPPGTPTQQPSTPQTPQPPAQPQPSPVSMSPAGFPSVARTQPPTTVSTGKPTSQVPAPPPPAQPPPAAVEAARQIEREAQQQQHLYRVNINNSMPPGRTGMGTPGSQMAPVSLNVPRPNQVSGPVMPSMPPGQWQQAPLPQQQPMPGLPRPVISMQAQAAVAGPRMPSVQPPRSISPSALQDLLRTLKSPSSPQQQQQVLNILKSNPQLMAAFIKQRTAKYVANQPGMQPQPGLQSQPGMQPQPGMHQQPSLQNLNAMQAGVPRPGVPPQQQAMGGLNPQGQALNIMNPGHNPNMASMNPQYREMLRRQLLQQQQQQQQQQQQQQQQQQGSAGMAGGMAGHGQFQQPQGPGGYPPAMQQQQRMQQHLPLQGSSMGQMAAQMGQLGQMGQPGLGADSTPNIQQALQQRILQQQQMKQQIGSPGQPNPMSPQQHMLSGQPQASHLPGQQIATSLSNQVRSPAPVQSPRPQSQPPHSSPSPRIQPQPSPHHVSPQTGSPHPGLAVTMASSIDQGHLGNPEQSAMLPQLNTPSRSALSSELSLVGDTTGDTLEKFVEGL

O=C1/C(=C/c2cccc(Br)c2)CN(Cc2ccccc2)C/C1=C\c1cccc(Br)c1 [MC2884]
IC50 (CBP): 3.27 µM
IC50 (KAT5): 0.835 µM
% Cell death SHSY5Y cells [1]: 19.1%
normalized weight, % of initial weight [2]: 90%
human CD45+ cells in the bone marrow reduced to (NB4 cells): 17%
half-life [3]: 4.58 h
